Data from ChEMBL document CHEMBL3507680, “University of Dundee, Gates Library screen for HepG2 cell viability”.

Experiment: Human HepG2 cell viability assay in 384 well format
Format: toxicity, cell-based
Parameters: dose 125 nL, time 70.5 hour; concentration not given beside the values
Details: HepG2 cells, read-out: Inhibition

| Structure (SMILES) | cytotoxicity at 70.5 h |
| --- | --- |
| O=c1c2ccccc2nc2n1C(CSc1ccc(Br)cc1)CN2 (stereo unspecified) | 0.264% |
| O=c1c2ccccc2nc2n1C(CSc1ccc(F)cc1)CN2 (stereo unspecified) | 28.4% |
| Cc1ccc(SCC2CNc3nc4ccccc4c(=O)n32)c(C)c1 (stereo unspecified) | 20% |
| CCOC(=O)Cn1ccc(O)c(Cc2ccc(Cl)cc2Cl)c1=O | 0.692% |
| O=c1c(Cc2ccccc2)c(O)ccn1Cc1ccco1 | 0.508% |
| Cc1nc(N2CCCC2)nc2c1CN(C(=O)N1CCOCC1)CC2 | -14.3% |
| CC(C)CN1CCC2(CCN(Cc3ccsc3)CC2)C1=O | 6.07% |
| COc1ccc(S(=O)(=O)N2CCCC3(CCCN3S(C)(=O)=O)C2)cc1 (stereo unspecified) | 8.26% |
| CS(=O)(=O)N1CCCC12CCCN(S(=O)(=O)c1cc(F)cc(F)c1)C2 (stereo unspecified) | -5.59% |
| CNC(=O)[C@@]12CCC3(CCN(S(C)(=O)=O)CC3)[C@@H]1CN(S(C)(=O)=O)C2 | 1.46% |
| Cc1nc(C)n(CC2CN(c3ncccn3)Cc3nccn3C2)n1 (stereo unspecified) | -8.98% |
| COCc1ncn2c1CN(C(=O)C1CC=CC1)CC2 | -8.8% |
| O=C(Cc1ccccc1)N1CCC2(CC(=O)N(c3cccc(F)c3)C2)C1 (stereo unspecified) | -4.78% |
| O=C(c1ccoc1)N1CCC2(CC1)C(=O)Nc1ccccc12 | -2.01% |
| CCS(=O)(=O)N1Cc2nccn2CC(Cn2nc(C)nc2C)C1 (stereo unspecified) | -13.6% |
| CN(C)C(=O)COC[C@]12COC[C@H]1CN(Cc1ccoc1)C2 | -6.16% |
| O=C(c1cncnc1)N1CCCC(c2nccs2)C1 (stereo unspecified) | -3.47% |
| c1cc(CN2CCCC(c3ccnc4nccn34)C2)ccn1 (stereo unspecified) | -3.33% |
| Cc1cc(C)n(C2CCN(S(C)(=O)=O)CC2)n1 | 9.79% |
| O=S(=O)(N1CCCC1)N1CC(c2ccnc(Nc3ccccn3)n2)C1 | 8.07% |
| O=S1(=O)NC(c2ccnc(N3CCCCC3)n2)=Nc2ccccc21 | 7.4% |
| CN(C)c1cc(C2CCCN2C(=O)c2noc3c2CCCC3)ccn1 (stereo unspecified) | -6.7% |
| COc1ccc2c(c1)c(-c1nc(C)ncc1CN)cn2C | 13.5% |
| Cc1cc(C)nc(N2CCC(c3ccnc(N(C)C)n3)CC2)n1 | -3.9% |

| Structure (SMILES) | cytotoxicity at 70.5 h |
| --- | --- |
| COc1ccccc1N1CC(NC(=O)Cn2cc(C)nn2)CC1=O (stereo unspecified) | -7.03% |
| CCN(CC)c1ncc2c(O)nc(C3CCNCC3)cc2n1 | -4.7% |
| COCCN1CCCC(C)(c2cc(O)[nH]n2)C1 (stereo unspecified) | 1.15% |
| CN(C)c1ncc2c(O)nc(C3CCCNC3)cc2n1 (stereo unspecified) | -3.16% |
| CN(C)c1nccc(C2CCN(c3ncccn3)CC2)n1 | -0.97% |
| CN1CCC(c2cccc(NCc3nccn3C)n2)CC1 | 22.4% |
| CC(=O)N1CCC(c2cccc(NC3CCOCC3)n2)CC1 | -1.75% |
| COCCNc1ncc(-c2cccc(F)c2)c(-c2nccn2C)n1 | 11% |
| CCOCCCNc1ncc(-c2cccc(F)c2)c(-c2nccn2C)n1 | -3.33% |
| O=C(CC1CCN(c2cccnn2)CC1)Nc1cccnc1 | -6.44% |
| CN(C)CCNC(=O)CC1CCN(c2cccnn2)CC1 | -2.25% |
| CCNC(=O)C1(Cc2cc(-c3ccc(C)cc3)no2)CCCN(C)C1 (stereo unspecified) | -5.63% |
| CN1CCC(c2cccc(NCc3ccncc3)n2)CC1 | -2.85% |
| COCCN1CCC1c1cc(N)nc(C)n1 (stereo unspecified) | -2.65% |
| Cc1cc(C)n(C2CCN(S(=O)(=O)N3CCC(C)CC3)CC2)n1 | -3.62% |
| CNc1nc(C)c(C(=O)NCC(C)(C)N2CCCCC2)s1 | -0.6% |
| CCCn1nc(C)c(-c2cncn2CC2(N(C)C)CCC(C)CC2)c1C (stereo unspecified) | -5.71% |
| CNC(=O)C1CN(c2ccnc(C)n2)CCN(C2CCOCC2)C1 (stereo unspecified) | -1.96% |
| c1cnc(Nc2cc(CCC3CCNCC3)ccn2)cn1 | 5.45% |
| CC(C)C(=O)N1CCCc2c(cnn2-c2ccccc2)C1 | -5.24% |
| Cc1cc2c(c(=O)n1CCC(=O)O)C=CC(C)(C)O2 | -2.47% |
| CNC(=O)C1(CCCc2ccccn2)CCN1Cc1coc(C)n1 (stereo unspecified) | 14.6% |
| Cc1ccc(CC2COCCN(Cc3ccccc3)C2)nc1 (stereo unspecified) | -2.48% |
| CN1CCCC(Cc2cc(N(C)C)ncn2)C1 (stereo unspecified) | -5.24% |

| Structure (SMILES) | cytotoxicity at 70.5 h |
| --- | --- |
| CC(Cn1cc(Cl)cn1)C(=O)Nc1ccc(CN2CCCCCC2)cc1 (stereo unspecified) | 18.9% |
| COCC(=O)N1CCCCC1c1nc(C)c2c(n1)N(CC1CC1)C(=O)C2 (stereo unspecified) | -2.8% |
| Cc1nc(N)ncc1C(=O)N1CCCC1(C)C(=O)N(C)C (stereo unspecified) | -3.98% |
| CC(=O)Nc1ccc(CCC2(NC(=O)C3CC3)CCCCC2)cn1 | -0.0205% |
| Cc1cc2ccncc2n1CC1(O)CCN(C(=O)c2cccnc2)CC1 | -0.954% |
| Cc1ncc(-c2ccccn2)c(CCNC(=O)C2CCCC2)n1 | 14.1% |
| Cc1ncc(-c2ccccn2)c(CCNC(=O)CCC2CCCO2)n1 (stereo unspecified) | 3.67% |
| CCn1cc(S(=O)(=O)N2CCCCCC2c2cc(C)no2)cn1 (stereo unspecified) | 0.308% |
| Cc1nc(C)n(CC(=O)N2CCCC(c3nc(C)n4c(C)csc34)C2)n1 (stereo unspecified) | 0.595% |
| Cc1csc2c(C3CCN(C(=O)Cn4cncn4)CC3)nc(C)n12 | -2.36% |
| CNC(=O)C1CN(c2cc(C)ncn2)CCN1Cc1ccccc1 (stereo unspecified) | 21.6% |
| CN(C)c1ncc(I)c(C2CCCN2S(C)(=O)=O)n1 (stereo unspecified) | 44.4% |
| Cc1cc(Cc2cccc(C(F)(F)F)c2)cc(C2CCCNC2)n1 (stereo unspecified) | 2.41% |
| Cc1ccc(CC(=O)N2CCOC(c3ncc(CN(C)C)[nH]3)C2)s1 (stereo unspecified) | -6.18% |
| Cc1ccc(C(=O)N2CCOC(c3ncc(CN(C)C)[nH]3)C2)cc1F (stereo unspecified) | -3.52% |
| Cc1ccccc1C(=O)N1CCOC(c2ncc(CN(C)C)[nH]2)C1 (stereo unspecified) | -6.83% |
| COc1cccc(CN2CCC(Cc3cnc(CN(C)C)cn3)CC2)c1 | 22.5% |
| CCN1C(=O)CC[C@@H]2N(C(=O)CCn3nccc3C)CCCC[C@@]21C | -6.96% |
| CN1CCN(C(=O)c2ccccc2)CC(Cc2cc(N(C)C)ncn2)C1 (stereo unspecified) | -3.72% |
| Cc1cccc(Cc2cc(C)nc(C3CCCNC3)c2)c1 (stereo unspecified) | 2.77% |
| O=C(c1ccc2[nH]nnc2c1)N1CC[C@H](O)[C@]2(CCCO2)C1 | -4.29% |
| CCNc1ncnc2c1CN(C1CCCNCC1)C(=O)CN2C (stereo unspecified) | 1.19% |
| CC(C)CC(=O)Nc1ccccc1Oc1ccsc1C(=O)O | -2.03% |
| O=c1c(Cc2ccc(Cl)cc2Cl)c(O)ccn1CC1CC1 | -5.97% |

| Structure (SMILES) | cytotoxicity at 70.5 h |
| --- | --- |
| CC(C)(C)C(=O)Nc1ccc(Oc2ccsc2C(=O)O)cc1 | 1.54% |
| O=C(O)c1sccc1Oc1ccc(NC(=O)C2CC2)cc1 | -0.448% |
| CC(C)(C)OC(=O)N1CCN(c2nnc(Br)s2)CC1 | 18.7% |
| CC(C)(C)OC(=O)N1CCCN(c2nnc(Br)s2)CC1 | -4.55% |
| CN(C)c1cc(C(F)(F)F)cc(-c2ccc(C(=O)O)cc2)n1 | -6.98% |
| O=C(O)c1cnc(OCC2CC2)c(Br)c1 | -4.12% |
| O=C(O)c1cc(Br)cnc1OCC1CC1 | 2.88% |
| O=C(NC1CC1)c1cc(C(F)(F)F)cc(C(F)(F)F)n1 | -9.57% |
| OCc1cn(Cc2cccc(C(F)(F)F)c2)nn1 | -9.88% |
| COC(=O)c1c(C(F)(F)F)cnc(OC)c1Cl | -11.7% |
| CC(O)c1cn(Cc2ccccc2)nn1 (stereo unspecified) | -6.51% |
| COc1ccc(Cn2cc(C(C)O)nn2)cc1 (stereo unspecified) | 20.2% |
| OC1(CNc2cccc(F)c2)CCNCC1 | -3.17% |
| Cc1ccc(C(=O)CC(SC2CCCCC2)C(=O)O)cc1 (stereo unspecified) | -2.59% |
| COC(=O)c1ccc(C)c(N2CCNC2=O)c1 | -2.21% |
| COC(=O)CN1CCC(C(F)(F)F)CC1 | -2.55% |
| O=C(CN1CCOCC1)Nc1cc(C(F)(F)F)ccc1-n1cccc1 | -3.59% |
| Cn1c(CN2CCCc3cc(F)cc(F)c32)cc(=O)n(C)c1=O | -4.68% |
| Cc1ccc(F)c(S(=O)(=O)N2CCCC2c2ccncc2)c1 (stereo unspecified) | -1.25% |
| CNC(=O)c1ccc(CN(C)C(=O)Nc2nnc(C(C)C)s2)cc1 | 2.68% |
| C/C(=C\c1ccccc1)CN1CCCC(c2nnc3n2CCNCC3)C1 (stereo unspecified) | -6.58% |
| COc1ccccc1CN1CCCCC1c1n[nH]cc1-c1cc(C)no1 (stereo unspecified) | -6.18% |
| CN(C)c1ncc(-c2cncn2CCc2ccc3c(c2)OCCO3)cn1 | -7.82% |
| Cc1nn(C)cc1-c1cncn1CCc1ccc2c(c1)OCCO2 | -9.48% |

| Structure (SMILES) | cytotoxicity at 70.5 h |
| --- | --- |
| CCc1ccc(CN2CCCCC2c2n[nH]cc2-c2cc(C)no2)cc1 (stereo unspecified) | -5.56% |
| CCn1nc(C)c(-c2cncn2CCN(C)C2CCCC2)c1C | -7.35% |
| Cc1cc(-c2nccs2)nc(C2CCN(Cc3ccncc3)CC2)n1 | -0.926% |
| CNC[C@H]1CC[C@H](c2cc(CN(C)S(=O)(=O)N(C)C)n(C)n2)CC1 | -3.44% |
| CCCn1nc(C)c(-c2cncn2CCN(C)C2CCCC2)c1C | -4.61% |
| Cc1ncccc1-c1cc2cccnc2n1CCCNC(=O)C(C)(C)C | 2.29% |
| CCC(=O)NCCCn1c(-c2cccnc2C)cc2cccnc21 | -1.81% |
| CC(C)c1nc(-c2ccnc(N3CCNCC3)n2)no1 | -7.09% |
| Cc1nc(-c2ccnc(N3CCNCC3)n2)no1 | -1.44% |
| Cc1ccc(C(=O)N2CCC3(CC2)CC(N2CCCC2)C3)cc1 | -10.8% |
| COc1ccc(CN2CCN(C(C)=O)CC3(CC(=O)N(C)C3)C2)cc1 (stereo unspecified) | -0.064% |
| Cn1cc(CN2CCCC3(CCN(c4nncs4)C3)C2)cn1 (stereo unspecified) | -0.185% |
| CNC(=O)N1CCc2cc(C(=O)N(C)C)c(NCC3CC3)nc2CC1 | -12% |
| O=C(NCc1cnc2n1CCN(Cc1ccsc1)CC2)C1CCC1 | -10.8% |
| CCS(=O)(=O)N[C@@H]1CN(Cc2cc(C)on2)C[C@@H]2CCCO[C@@H]21 | -10.1% |
| Cc1cccc(CN2C(=O)CCC23CCN(Cc2cccn2C)CC3)n1 | -3.65% |
| CN(C)CCN1C(=O)CCC12CCN(C(=O)c1cccnc1)CC2 | -4% |
| CC(C)CN1CCN(C)C2(CCN(Cc3ccsc3)CC2)C1=O | 0.403% |
| CCN1CCC2(CCC(=O)N2Cc2cccc(C)n2)CC1 | -4.89% |
| Cc1cc(CN2C[C@@H]3CCCO[C@@H]3[C@H](Nc3ccccn3)C2)no1 | -8.77% |
